Measured values from patent US11447525B2 (NIIGATA UNIVERSITY, priority 2018, dated 2022).
“Also recorded” adds a separate entry of the source. Blank lines part the entries; values can stand above or below the compound they belong to. Non-standard residues stand in square brackets, D forms with d. Residues, ends and D or L forms follow the SMILES beside them. No end group written: not given here. *: point of attachment. 5FAM = O=C1OC2(c3ccc(O)cc3Oc3cc(O)ccc32)c2ccc(C(=O)*)cc21; NMeR = CN[C@@H](CCCNC(=N)N)C(=O)O

How the values were obtained:
[1] = human blood plasma having a concentration of 50% by mass; settings: up to 120 minutes
[2] = system: pancreatic cancer cells (BxPC3, PK-8, AsPC1); experiment: Accumulation of FLC-labeled peptides in cells (Test Example 8); format: cell-based, human; settings: 2 μM, 37° C., 2 hours
Protocol: Tests were conducted to confirm the accumulation of various peptides into each of the cells shown below in Table 13. Further, the peptides shown below in Table 14 were used.
Each peptide was added to each of the cells shown in Table 13 in an amount sufficient to achieve a final concentration in the medium of 2 μM, and following cultivation of the cells at 37° C. for 2 hours, the sample was washed 3 times with a medium containing no peptide to remove any peptide within the medium. Subsequently, the incorporation of each of the peptides into each of the cells was evaluated visually using an inverted fluorescence microscope. Prior to the microscopic examination, the culture supernatant to which the peptide had been added was removed, and following washing three times with 1×PBS (−), a trypsin treatment was conducted to remove the adherent cells, and the resultant was immediately transferred into a new 96-well plate and once again suspended in fresh culture solution before the microscopic examination was performed. In FIG. 23, “pep(−)” indicates the control cells to which no peptide was administered, and “single PCPP11” indicates cells to which FLC (fluorescein)-PCPP11 had been added. Further, “mal” indicates a maleimide group, with the peptide and the FLC bonded together by forming a covalent bond between the thiol group (—SH) of a cysteine residue and a maleimide group introduced into the FLC.

[3] = system: human pancreatic cancer growth and progression mouse model (subcutaneous and intraperitoneal human pancreatic cancer cell-transplanted); experiment: Selective absorption into tissues of human pancreatic cancer growth and progression mouse model, fluorescence signal (Test Examples 3, 4, Reference Example 2); format: in vivo, Balb/c nu/nu mouse; settings: 200 μg intravenously, 30 minutes after injection
Protocol: Subsequently, 200 μg of each of the fluorescent labeled peptides prepared above in “1.” was injected intravenously into a human pancreatic cancer growth and progression mouse model (Balb/c nu/nu mouse, subcutaneous and intraperitoneal human pancreatic cancer cell-transplanted model). The pharmacokinetics of the peptide 30 minutes after the intravenous injection were then analyzed by tissue analysis of the freshly dissected specimen of the administered mouse, with the absorption quantified by detection of the fluorescence signal. […] In FIG. 9A, “sc tumor” is an abbreviation for “subcutaneous tumor”. In FIG. 9B, “abd tumor” is an abbreviation for “abdominal tumor”, indicating a tumor formed intraperitoneally. Further, “br” indicates the brain, “hr” indicates the heart, “kd” indicates the kidney, and “liv” indicates the liver. Furthermore, “liv. meta” is an abbreviation for “liver metastatic tumor”, and describes a tumor that has metastasized to the liver. Moreover, “panc” indicates the pancreas, and “sp” indicates the spleen. These same abbreviations are also used in subsequent figures. Furthermore, the term “untreated” in FIG. 9A indicates tissues resected from a mouse that was not administered with any fluorescent labeled peptide.
Specifically, first, either 27 μg or 200 μg of fluorescein was injected intravenously into a human pancreatic cancer growth and progression mouse model (Balb/c nu/nu mouse, subcutaneous and intraperitoneal human pancreatic cancer cell-transplanted model). The pharmacokinetics of the FLC 30 minutes after the intravenous injection were then analyzed by tissue analysis of the freshly dissected specimen of the administered mouse, with the absorption quantified by detection of the fluorescence signal.

[4] = Degradation test by human blood plasma, MALDI-TOFMS analysis; format: in vitro ADME; settings: 50% by mass human blood plasma; for degradation products observed: within 120 minutes of starting the test
Protocol: Specifically, a peptide composed of the amino acid sequence represented by SEQ ID NO: 1 (hereafter sometimes referred to as “PCPP11”) was added to human blood plasma having a concentration of 50% by mass, the mixture was sampled immediately after starting the degradation test (after 0 minutes), and then after 5 minutes, after 10 minutes, after 20 minutes, after 30 minutes, after 60 minutes and after 120 minutes, and the samples were analyzed by MALDI-TOFMS (Matrix Assisted Laser Desorption/Ionization-Time Of Flight Mass Spectrometry). In Table 2, “UK” is an abbreviation for “unknown”. Further, the No. shown for each peptide in Table 2 corresponds with the numerical value recorded on the peaks of the graphs shown in FIG. 1.
Each of the peptides described above was added to human blood plasma having a concentration of 50% by mass, the resulting mixture was sampled immediately after starting the degradation test (after 0 minutes), and then after 5 minutes, after 10 minutes, after 20 minutes, after 30 minutes, after 60 minutes and after 120 minutes, and the samples were analyzed by MALDI-TOFMS. The results are shown in FIGS. 2 to 6 and Tables 4 to 6 shown below. Furthermore, the data for the degradation test by human blood plasma using PCPP11 from Reference Example 1 and the degradation tests by human blood plasma using each of the above peptides are collated in FIG. 7 and Table 7. The SEQ ID NO listed for the FAM-labeled peptide represents the SEQ ID NO of the peptide portion. Further, the No. shown for each peptide in Tables 4 to 6 corresponds with the numerical value recorded on the peaks of the graphs shown in FIGS. 2 to 6. In each table, in those cases where the numerical values are shown separated into an upper row and a lower row, the upper row value indicates the proportion (%) of peak area for two or more peptides relative to the total peak area in the MALDI-TOFMS analysis. On the other hand, the lower row value indicates the proportion (%) of each peptide when the peak area for the two or more peptides is deemed to be 100%. Moreover, for example, for the peptide No. 9 shown in Table 4, the left-side “70.0%” indicates the proportion (%) of the peptide No. 9 when the total peak area for the peptides No. 9 to 11 is deemed to be 100%, whereas the right-side “65%” indicates the proportion (%) of the peptide No. 9 relative to the total peak area in the MALDI-TOFMS analysis. This system is also used in the following tables.

- fragment found [1]: [FAM]-RRPTTWH, 10 min
Compound: [FAM]-RRPTTWHKP (5FAM-RRPTTWHKP-OH; C-terminus assumed; SMILES C[C@@H](O)[C@H](NC(=O)[C@@H](NC(=O)[C@@H]1CCCN1C(=O)[C@H](CCCNC(=N)N)NC(=O)[C@H](CCCNC(=N)N)NC(=O)c1ccc2c(c1)C(=O)OC21c2ccc(O)cc2Oc2cc(O)ccc21)[C@@H](C)O)C(=O)N[C@@H](Cc1c[nH]c2ccccc12)C(=O)N[C@@H](Cc1c[nH]cn1)C(=O)N[C@@H](CCCCN)C(=O)N1CCC[C@H]1C(=O)O)

Compound: RPTTWHKP-G-RRPTTWHKP-K(-[FLC])-RRPTTWHKP (RPTTWHKPGRRPTTWHKPK(fluorescein)RRPTTWHKP) [L(-R)L-Lys(-FLC)-L]
- fluorescence compared with FLC-PCPP11 [2]: stronger fluorescence
- fluorescence detected in all of the pancreatic cancer cells [2]: particularly strong fluorescence

Compound: RPTTWHKP-C(-[FLC])-RRPTTWHKP-C(-[FLC])-RRPTTWHKP [L(-R)-Cys(-FLC)-L-Cys(-FLC)-L]
- fluorescence compared with FLC-PCPP11 [2]: stronger fluorescence
- fluorescence detected in all of the pancreatic cancer cells [2]: particularly strong fluorescence

Compound: RRPTTWHKP-G-pkhwttprr (H-RRPTTWHKPG[dP][dK][dH][dW][dT][dT][dP][dR][dR]-OH; N-terminus and C-terminus assumed; SMILES C[C@H](O)[C@@H](NC(=O)[C@@H](Cc1c[nH]c2ccccc12)NC(=O)[C@@H](Cc1c[nH]cn1)NC(=O)[C@@H](CCCCN)NC(=O)[C@H]1CCCN1C(=O)CNC(=O)[C@@H]1CCCN1C(=O)[C@H](CCCCN)NC(=O)[C@H](Cc1c[nH]cn1)NC(=O)[C@H](Cc1c[nH]c2ccccc12)NC(=O)[C@@H](NC(=O)[C@@H](NC(=O)[C@@H]1CCCN1C(=O)[C@H](CCCNC(=N)N)NC(=O)[C@@H](N)CCCNC(=N)N)[C@@H](C)O)[C@@H](C)O)C(=O)N[C@@H](C(=O)N1CCC[C@@H]1C(=O)N[C@H](CCCNC(=N)N)C(=O)N[C@H](CCCNC(=N)N)C(=O)O)[C@H](C)O)
- fragment found [1]: RPTTWHKP-G-pkhwttprr, Start; also recorded: TTWHKP-G-pkhwttprr, Start

Compound: RRPTTWHKP-G-RRPTTWHKP-G-RRPTTWHKP (RRPTTWHKPGRRPTTWHKPGRRPTTWHKP)
- not cleaved [1]: no degradation products within 120 minutes; 100% at 120 min

Compound: RPTTWHKP-G-RRPTTWHKP-C(-[FLC])-RRPTTWHKP (RPTTWHKPGRRPTTWHKPC(fluorescein)RRPTTWHKP) [L(-R)L-Cys(-FLC)-L]
- fluorescence compared with FLC-PCPP11 [2]: stronger fluorescence
- fluorescence detected in all of the pancreatic cancer cells [2]: particularly strong fluorescence

Compound: RRPTTWHKP-G-RRPTTWHKP (RRPTTWHKPGRRPTTWHKP)
- fragment found [1]: TTWHKP-G-RRPTTWHKP, 60 min; also recorded: RPTTWHKP-G-RRPTTWHKP, 20 min

Compound: R-mR-PTTWHKP-C(-[FLC])-RRPTTWHKP-G-RRPTTWHKP [NmL-Cys(-FLC)-LL]
- fluorescence compared with FLC-PCPP11 [2]: stronger fluorescence
- fluorescence detected in all of the pancreatic cancer cells [2]: particularly strong fluorescence

Compound: [FLC]-R-mR-PTTWHKP-G-RRPTTWHKP [FLC-NmLL]
- fluorescence compared with FLC-PCPP11 [2]: stronger fluorescence

Compound: C[C@H](O)[C@@H](NC(=O)[C@@H](Cc1c[nH]c2ccccc12)NC(=O)[C@@H](Cc1c[nH]cn1)NC(=O)[C@@H](CCCCN)NC(=O)[C@H]1CCCN1C(=O)CNC(=O)[C@@H]1CCCN1C(=O)[C@H](CCCCN)NC(=O)[C@H](Cc1c[nH]cn1)NC(=O)[C@H](Cc1c[nH]c2ccccc12)NC(=O)[C@@H](NC(=O)[C@@H](NC(=O)[C@@H]1CCCN1C(=O)[C@H](CCCNC(=N)N)N(C)C(=O)[C@@H](N)CCCNC(=N)N)[C@@H](C)O)[C@@H](C)O)C(=O)N[C@@H](C(=O)N1CCC[C@@H]1C(=O)N[C@H](CCCNC(=N)N)C(=O)N[C@H](CCCNC(=N)N)C(=O)O)[C@H](C)O [No. 19, R-mR-PTTWHKP-G-pkhwttprr] (H-R[NMeR]PTTWHKPG[dP][dK][dH][dW][dT][dT][dP][dR][dR]-OH; N-terminus and C-terminus assumed)
- inhibitory performance on nonspecific absorption into untargeted normal organs [3]: maintained satisfactorily
- absorption into pancreatic malignant tumors relative to the Ld peptide ([3]; FIG. 12B): approximately 1.4 fold
- degradation resistance compared with the stand-alone PCPP11 and the FAM-PCPP11 [4]: superior degradation resistance
- degradation products observed [4]: no degradation products were observed

- inhibitory performance on nonspecific absorption into untargeted normal organs [3]: satisfactorily maintained
- absorption into pancreatic malignant tumors compared with the conventional PCPP11 ([3]; FIG. 11): approximately 6 fold
Compound: C[C@@H](O)[C@H](NC(=O)[C@@H](NC(=O)[C@@H]1CCCN1C(=O)[C@H](CCCNC(=N)N)NC(=O)[C@H](CCCNC(=N)N)NC(=O)CNC(=O)[C@@H]1CCCN1C(=O)[C@H](CCCCN)NC(=O)[C@H](Cc1c[nH]cn1)NC(=O)[C@H](Cc1c[nH]c2ccccc12)NC(=O)[C@@H](NC(=O)[C@@H](NC(=O)[C@@H]1CCCN1C(=O)[C@H](CCCNC(=N)N)NC(=O)[C@H](CCCNC(=N)N)NC(=O)CNC(=O)[C@@H]1CCCN1C(=O)[C@H](CCCCN)NC(=O)[C@H](Cc1c[nH]cn1)NC(=O)[C@H](Cc1c[nH]c2ccccc12)NC(=O)[C@@H](NC(=O)[C@@H](NC(=O)[C@@H]1CCCN1C(=O)[C@H](CCCNC(=N)N)NC(=O)[C@H](CCCNC(=N)N)NC(=O)c1ccc2c(c1)C(=O)OC21c2ccc(O)cc2Oc2cc(O)ccc21)[C@@H](C)O)[C@@H](C)O)[C@@H](C)O)[C@@H](C)O)[C@@H](C)O)C(=O)N[C@@H](Cc1c[nH]c2ccccc12)C(=O)N[C@@H](Cc1c[nH]cn1)C(=O)N[C@@H](CCCCN)C(=O)N1CCC[C@H]1C(=O)O [FAM-LLL] (5FAM-RRPTTWHKPGRRPTTWHKPGRRPTTWHKP-OH; C-terminus assumed)

- degradation resistance compared with the stand-alone PCPP11 and the FAM-PCPP11 [4]: superior degradation resistance
Compound: C[C@@H](O)[C@H](NC(=O)[C@@H](NC(=O)[C@@H]1CCCN1C(=O)[C@H](CCCNC(=N)N)NC(=O)[C@H](CCCNC(=N)N)NC(=O)CNC(=O)[C@@H]1CCCN1C(=O)[C@H](CCCCN)NC(=O)[C@H](Cc1c[nH]cn1)NC(=O)[C@H](Cc1c[nH]c2ccccc12)NC(=O)[C@@H](NC(=O)[C@@H](NC(=O)[C@@H]1CCCN1C(=O)[C@H](CCCNC(=N)N)N(C)C(=O)[C@@H](N)CCCNC(=N)N)[C@@H](C)O)[C@@H](C)O)[C@@H](C)O)C(=O)N[C@@H](Cc1c[nH]c2ccccc12)C(=O)N[C@@H](Cc1c[nH]cn1)C(=O)N[C@@H](CCCCN)C(=O)N1CCC[C@H]1C(=O)O [No. 18] (H-R[NMeR]PTTWHKPGRRPTTWHKP-OH; N-terminus and C-terminus assumed)

- degradation resistance compared with the stand-alone PCPP11 and the FAM-PCPP11 [4]: superior degradation resistance
- degradation products observed [4]: no degradation products were observed
Compound: RRPTTWHKPGRRPTTWHKPGRRPTTWHKP [No. 12]

Compound: R-mR-PTTWHKP-C(-[FLC])-RRPTTWHKP [NmL-Cys(-FLC)-L]
- fluorescence compared with FLC-PCPP11 [2]: stronger fluorescence
